The results in this text go back to patent publication EP1263429B1, “ANTIVIRAL THERAPY” (Universiteit Utrecht, priority 2000, dated 2001).

The assay concerns HIV-1. Put plainly: IC50 determination of an anti-viral (Table 3). The class given is cell-based. To be noted: Human immunodeficiency virus 1.

As a reminder, the pIC50 is −log10 of the IC50, conventionally taken in molar units. A low value points to a high IC50.

pIC50: −log10 of the molar value.

Compound `CCCCC#CCSc1ccccc1OCCCC` [BPHS] had a pIC50 of 4.40.
